# Laboratory results from patent EP0543555A1, “Phosphorylated flavanoids in the treatment of viral diseases” (MERRELL DOW PHARMACEUTICALS INC., priority 1991, dated 1993).
# Several values for one entry are separate records, joined by “and”; a condition that tells them apart may be missing. Equal entries are not always repeated. Where two headings read alike, the source gives them in different places.
# Columns and labels:
# CMV = test: Anti-CMV plaque reduction assay (AD169 strain, MRC 5 cell line); assay type: cell-based, cytomegalovirus (CMV); settings: for %: % of virus control
# Experimental: Experiments were carried out whereby phosphorylated hesperidin was present at the following times of the virus (AD169 strain, MRC 5 cell line) growth cycle. • 1. During adsorption and after • 2. During adsorption, then not • 3. Only added after adsorption A virus control with no drug was present on each plate.
# [1] = test system: Herpes type 2 strain HG52; test: Herpes type 2 plaque reduction assay (Vero cells); assay type: cell-based; settings: for %: % of virus control
# Text: Cell Line: Vero Virus: Herpes type 2 strain HG52
# HIV-1 = settings: for Mean Syncytial Counts Day 3 % / Mean Syncytial Counts Day 4 %: % of virus control; for Mean Syncytial Counts Day 4 %: 5760 min
# Experimental: JM cells were infected with HIV-1 for 2 hours at room temperature. The cells were then washed and distributed into duplicate wells containing different concentrations of the test compound and incubated at 37°C. On days 3 and 4 the cells were observed and the syncytia counted and on day 4 the supernatant fluid was also harvested for detection of p24 viral core antigen using the Abbott EIA.
# [2] = First trial, added before and after adsorption, 31 µg/ml
# [3] = Second trial, during and after adsorption, 31 µg/ml
# [4] = Second trial, during and after adsorption, 62 µg/ml
# [5] = Third trial, after adsorption only, 3.75 µg/ml
# [6] = Third trial, after adsorption only, 7.5 µg/ml
# [7] = Third trial, after adsorption only, 15 µg/ml
# [8] = Third trial, after adsorption only, 31µg/ml
# [9] = Third trial, after adsorption only, 62 µg/ml
# [10] = Third trial, during adsorption only, 3.75 µg/ml
# [11] = Third trial, during adsorption only, 7.5 µg/ml
# [12] = Third trial, during adsorption only, 15 µg/ml
# [13] = Third trial, during adsorption only, 31µg/ml
# [14] = Third trial, during and after adsorption, 3.75 µg/ml
# [15] = Third trial, during and after adsorption, 7.5 µg/ml
# [16] = Third trial, during and after adsorption, 15 µg/ml
# [17] = Third trial, during and after adsorption, 31µg/ml
# [18] = Third trial, during and after adsorption, 62 µg/ml
# [19] = First trial, during adsorption and incubation, 10 µg/ml
# [20] = First trial, during adsorption and incubation, 50 µg/ml
# [21] = First trial, during adsorption and incubation, 100 µg/ml
# [22] = First trial, during adsorption, 10 µg/ml
# [23] = First trial, during adsorption, 50 µg/ml
# [24] = First trial, during adsorption, 100 µg/ml
# [25] = Second trial, during adsorption and incubation, 125 µg/ml
# [26] = Second trial, during adsorption and incubation, 250 µg/ml
# [27] = Second trial, during adsorption and incubation, 500 µg/ml
# [28] = Second trial, during adsorption, 500 µg/ml
# [29] = Second trial, incubation only, 125 µg/ml
# [30] = Second trial, incubation only, 250 µg/ml
# [31] = Second trial, incubation only, 500 µg/ml
substance,measurement,setting,value
Phosphorylated Hesperidin,No. of Plaques,CMV; [2],27 and 20 and 24
same,No. of Plaques Average,CMV; [2],24
same,%,CMV; [2],9.9%
same,No. of Plaques,"CMV; First trial, added before and after adsorption, 125 µg/ml",No plaques
same,No. of Plaques,"CMV; First trial, added before and after adsorption, 250 µg/ml",totally blocked
same,No. of Plaques,"CMV; Second trial, after adsorption only, 31 µg/m",As virus control
same,No. of Plaques,"CMV; Second trial, after adsorption only, 62 µg/ml",As virus control
same,No. of Plaques,"CMV; Second trial, after adsorption only, 125 µg/ml",As virus control
same,No. of Plaques,"CMV; Second trial, after adsorption only, 250 µg/ml",None
same,No. of Plaques,"CMV; Second trial, after adsorption only, 500 µg/ml",None
same,No. of Plaques,CMV; [3],35 and 40
same,No. of Plaques Average,CMV; [3],32.5
same,%,CMV; [3],17%
same,No. of Plaques,CMV; [4],35 and 40
same,No. of Plaques Average,CMV; [4],37.5
same,%,CMV; [4],22%
same,No. of Plaques,"CMV; Second trial, during and after adsorption, 125 µg/ml, estimate",~40 (estimate)
same,No. of Plaques,"CMV; Second trial, during and after adsorption, 250 µg/ml",None
same,No. of Plaques,"CMV; Second trial, during and after adsorption, 500 µg/ml",None
same,No. of Plaques,CMV; [5],As v.c.
same,%,CMV; [5],100%
same,No. of Plaques,CMV; [6],As v.c
same,%,CMV; [6],100%
same,No. of Plaques,CMV; [7],120 125 131
same,No. of Plaques Average,CMV; [7],125
same,plaque size (remark in No. of Plaques cell),CMV; [7],much smaller plaques
same,%,CMV; [7],66%
same,No. of Plaques,CMV; [8],119 125 128
same,No. of Plaques Average,CMV; [8],124
same,%,CMV; [8],65%
same,No. of Plaques Average,CMV; [9],89
same,plaque size (remark in No. of Plaques cell),CMV; [9],smaller plaques
same,%,CMV; [9],47%
same,No. of Plaques,CMV; [10],As v.c.
same,%,CMV; [10],100%
same,No. of Plaques,CMV; [11],As v.c.
same,No. of Plaques Average,CMV; [11],141
same,%,CMV; [11],100%
same,No. of Plaques,CMV; [12],148 140 135
same,%,CMV; [12],74%
same,No. of Plaques,CMV; [13],120 115 111
same,No. of Plaques Average,CMV; [13],115
same,plaque size (remark in No. of Plaques cell),CMV; [13],much smaller plaques
same,%,CMV; [13],61%
same,state of monolayer (printed in place of No. of Plaques),"CMV; Third trial, during adsorption only, 62 µg/ml, MRC 5 cell line",monolayer destroyed
same,No. of Plaques,CMV; [14],128 125 121
same,No. of Plaques Average,CMV; [14],125
same,%,CMV; [14],66%
same,No. of Plaques,CMV; [15],119 115 103
same,No. of Plaques Average,CMV; [15],122
same,%,CMV; [15],64%
same,No. of Plaques Average,CMV; [16],76
same,%,CMV; [16],40%
same,No. of Plaques Average,CMV; [17],60
same,%,CMV; [17],32%
same,No. of Plaques Average,CMV; [18],48
same,%,CMV; [18],25%
same,No. of Plaques,[1]; [19],253 and 243
same,No. of Plaques Average,[1]; [19],248
same,%,[1]; [19],100%
same,No. of Plaques,[1]; [20],112 and 132
same,No. of Plaques Average,[1]; [20],122
same,%,[1]; [20],54%
same,No. of Plaques,[1]; [21],95 and 62
same,No. of Plaques Average,[1]; [21],78.5
same,%,[1]; [21],35%
same,No. of Plaques,[1]; [22],211 and 231
same,No. of Plaques Average,[1]; [22],221
same,%,[1]; [22],98%
same,No. of Plaques,[1]; [23],154 and 146
same,No. of Plaques Average,[1]; [23],150
same,%,[1]; [23],66%
same,No. of Plaques,[1]; [24],187 and 144
same,No. of Plaques Average,[1]; [24],166
same,%,[1]; [24],73%
same,No. of Plaques,[1]; [25],58 and 71
same,No. of Plaques Average,[1]; [25],64.5
same,%,[1]; [25],46%
same,No. of Plaques,[1]; [26],11 and 10
same,No. of Plaques Average,[1]; [26],10.5
same,%,[1]; [26],7.5%
same,No. of Plaques,[1]; [27],None
same,No. of Plaques Average,[1]; [27],0
same,%,[1]; [27],0%
same,No. of Plaques,[1]; [28],50 and 58
same,No. of Plaques Average,[1]; [28],54
same,%,[1]; [28],38%
same,No. of Plaques,[1]; [29],50 and 61
same,No. of Plaques Average,[1]; [29],55.5
same,%,[1]; [29],39%
same,No. of Plaques,[1]; [30],16 and 11
same,No. of Plaques Average,[1]; [30],13.5
same,%,[1]; [30],9.6%
same,No. of Plaques,[1]; [31],None
same,No. of Plaques Average,[1]; [31],0
same,%,[1]; [31],0%
same,Mean Syncytial Counts Day 3 %,"HIV-1; Conc 0.1 µg/ml, 4320 min",100%
same,Mean Syncytial Counts Day 4 %,HIV-1; Conc 0.1 µg/ml,100%
same,Mean Syncytial Counts Day 3 %,"HIV-1; Conc 0.3 µg/ml, 4320 min",100%
same,Mean Syncytial Counts Day 4 %,HIV-1; Conc 0.3 µg/ml,100%
same,Mean Syncytial Counts Day 3 %,"HIV-1; Conc 1 µg/ml, 4320 min",100%
same,Mean Syncytial Counts Day 4 %,HIV-1; Conc 1 µg/ml,100%
same,Mean Syncytial Counts Day 3,HIV-1; Conc 3 µg/ml,As VC
same,Mean Syncytial Counts Day 3 %,HIV-1; Conc 3 µg/ml,100%
same,Mean Syncytial Counts Day 4 %,HIV-1; Conc 3 µg/ml,100%
same,Mean Syncytial Counts Day 3,HIV-1; Conc 10 µg/ml,51
same,Mean Syncytial Counts Day 4,HIV-1; Conc 10 µg/ml,As VC
same,Mean Syncytial Counts Day 3 %,"HIV-1; Conc 10 µg/ml, 4320 min",89%
same,Mean Syncytial Counts Day 4 %,HIV-1; Conc 10 µg/ml,100%
same,Mean Syncytial Counts Day 3,HIV-1; Conc 30 µg/ml,9
same,Mean Syncytial Counts Day 4,HIV-1; Conc 30 µg/ml,45
same,Mean Syncytial Counts Day 3 %,"HIV-1; Conc 30 µg/ml, 4320 min",16%
same,Mean Syncytial Counts Day 4 %,HIV-1; Conc 30 µg/ml,48%
same,Mean Syncytial Counts Day 3,HIV-1; Conc 100 µg/ml,0
same,Mean Syncytial Counts Day 4,HIV-1; Conc 100 µg/ml,5
same,Mean Syncytial Counts Day 3 %,"HIV-1; Conc 100 µg/ml, 4320 min",0%
same,Mean Syncytial Counts Day 4 %,HIV-1; Conc 100 µg/ml,5%
